Tests used:
Assay type in all cases: cell-based
[1] = tested on: Pseudomonas aeruginosa UI-18: Wild-type (PA-7); experiment: MIC determination (CLSI), strain PA-7; details: Pseudomonas aeruginosa UI-18, wild-type; unit assumed
Summary of the method: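 Strain tested was P. aeruginosa UI-18, a wild-type isolate labelled PA-7. Minimum inhibitory concentrations followed CLSI dilution methodology for aerobically growing bacteria (M7-A7, M100-S18).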

[2] = tested on: Escherichia coli EC-1: VOGEL, mouse virulent; experiment: MIC determination (CLSI), strain EC-1; details: Escherichia coli EC-1, VOGEL, mouse virulent; unit assumed
Summary of the method: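 The mouse-virulent VOGEL isolate of E. coli, EC-1, served as test organism. Minimum inhibitory concentration was measured by CLSI dilution methodology (M7-A7; M100-S18 standards).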

[3] = tested on: Acinetobacter baumanii/haemolyticus: Multidrug-resistant clinical isolate (AB-3167); experiment: MIC determination (CLSI), strain AB-3167; details: unit assumed
Summary of the method: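 Using the multidrug-resistant Acinetobacter baumanii/haemolyticus clinical isolate AB-3167, minimum inhibitory concentrations were determined following CLSI dilution susceptibility standards.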

Row | SMILES | PA-7 (MIC) [1] | EC-1 (MIC) [2] | AB-3167 (MIC) [3]
1 | C[C@@](CCn1ccc(-c2ccc(OC[C@H]3CC[C@@H](O)CC3)cc2)cc1=O)(C(=O)NO)S(C)(=O)=O [Example 8, (2R)-N-hydroxy-4-[4-{4-[(cis-4-hydroxycyclohexyl)methoxy]phenyl}-2-oxopyridin-1(2H)-yl]-2-methyl-2-(methylsulfonyl)butanamide] | 1 µg/mL | 0.5 µg/mL | > 64 µg/mL
2 | C[C@@](CCn1ccc(C#Cc2ccccc2)cc1=O)(C(=O)NO)S(C)(=O)=O [Example 65, (2R)-N-Hydroxy-2-methyl-2-(methylsulfonyl)-4-[2-oxo-4-(phenylethynyl)pyridin-1(2H)-yl]butanamide] | 0.5 µg/mL | 0.125 µg/mL | 64 µg/mL
3 | CC(CCn1ccc(-c2ccc(Oc3ccccn3)cc2)cc1=O)(C(=O)NO)S(C)(=O)=O (stereo not drawn) [Example 29, N-Hydroxy-2-methyl-2-(methylsulfonyl)-4-{2-oxo-4-[4-(pyridin-2-yloxy)phenyl]pyridin-1(2H)-yl}butanamide] | 4 µg/mL | 0.5 µg/mL | > 64 µg/mL
4 | CC(C)(O)C(O)CCOc1ccc(-c2ccn(CC[C@](C)(C(=O)NO)S(C)(=O)=O)c(=O)c2)cc1 (stereo partly drawn) [Example 10-K, (2R)-4-[4-{4-[(3,4-dihydroxy-4-methylpentyl)oxy]phenyl}-2-oxopyridin-1(2H)-yl]-N-hydroxy-2-methyl-2-(methylsulfonyl)butanamide] | 8 µg/mL | 8 µg/mL | > 64 µg/mL
5 | C[C@@](CCn1ccc(-c2ccc3ccccc3c2)cc1=O)(C(=O)NO)S(C)(=O)=O [Example 68-A, (2R)-N-hydroxy-2-methyl-2-(methylsulfonyl)-4-[4-(2-naphthyl)-2-oxopyridin-1(2H)-yl]butanamide] | 0.5 µg/mL | 0.06 µg/mL | > 64 µg/mL
6 | CCS(=O)(=O)C(C)(CCn1ccc(-c2ccccc2)cc1=O)C(=O)NO (stereo not drawn) [Example 57, 2-(ethylsulfonyl)-N-hydroxy-2-methyl-4-(2-oxo-4-phenylpyridin-1(2H)-yl)butanamide] | 64 µg/mL | 8 µg/mL | 16 µg/mL
7 | Cc1ccc(-c2ccn(CC[C@](C)(C(=O)NO)S(C)(=O)=O)c(=O)c2)c(F)c1 [Example 13, (2R)-4-[4-(2-fluoro-4-methylphenyl)-2-oxopyridin-1(2H)-yl]-N-hydroxy-2-methyl-2-(methylsulfonyl)butanamide] | 0.5 µg/mL | 0.5 µg/mL | > 64 µg/mL
8 | C[C@@](CCn1ccc(-c2ccccc2F)cc1=O)(C(=O)NO)S(C)(=O)=O [Example 43, (2R)-4-[4-(2-fluorophenyl)-2-oxopyridin-1(2H)-yl]-N-hydroxy-2-methyl-2-(methylsulfonyl)butanamide] | 0.5 µg/mL | 1 µg/mL | > 64 µg/mL
9 | C[C@@](CCn1ccc(-c2ccc(Cl)cc2F)cc1=O)(C(=O)NO)S(C)(=O)=O [Example 20, (2R)-4-[4-(4-chloro-2-fluorophenyl)-2-oxopyridin-1(2H)-yl]-N-hydroxy-2-methyl-2-(methylsulfonyl)butanamide] | 0.25 µg/mL | 0.25 µg/mL | > 64 µg/mL
10 | Cc1c(O)ccc(-c2ccn(CC[C@](C)(C(=O)NO)S(C)(=O)=O)c(=O)c2)c1F [Example 12, (2R)-4-[4-(2-fluoro-4-hydroxy-3-methylphenyl)-2-oxopyridin-1(2H)-yl]-N-hydroxy-2-methyl-2-(methylsulfonyl)butanamide] | 16 µg/mL | 16 µg/mL | > 64 µg/mL
11 | CC(CCn1ccc(-c2cc3ccccc3o2)cc1=O)(C(=O)NO)S(C)(=O)=O (racemic) [Example 33, (+/−)-4-[4-(1-benzofuran-2-yl)-2-oxopyridin-1(2H)-yl]-N-hydroxy-2-methyl-2-(methylsulfonyl)butanamide] | 2 µg/mL | 1 µg/mL | > 64 µg/mL
12 | CC(CCn1ccc(OCCC2CCCC2)cc1=O)(C(=O)NO)S(C)(=O)=O (stereo not drawn) [Example 68-S, 4-[4-(2-cyclopentylethoxy)-2-oxopyridin-1(2H)-yl]-N-hydroxy-2-methyl-2-(methylsulfonyl)butanamide] | 32 µg/mL | 16 µg/mL | 64 µg/mL
13 | C[C@@](CCn1ccc(-c2ccc3c(c2)OCCO3)cc1=O)(C(=O)NO)S(C)(=O)=O [Example 18, (2R)-4-[4-(2,3-dihydro-1,4-benzodioxin-6-yl)-2-oxopyridin-1(2H)-yl]-N-hydroxy-2-methyl-2-(methylsulfonyl)butanamide] | 1 µg/mL | > 64 µg/mL | > 64 µg/mL
14 | C[C@@](CCn1ccc(-c2ccc(C(F)(F)F)cc2)cc1=O)(C(=O)NO)S(C)(=O)=O [Example 68-I, (2R)-N-hydroxy-2-methyl-2-(methylsulfonyl)-4-{2-oxo-4-[4-(trifluoromethyl)phenyl]pyridin-1(2H)-yl}butanamide] | 1 µg/mL | 1 µg/mL | > 64 µg/mL
15 | CC1(O)CC(COc2ccc(-c3ccn(CC[C@](C)(C(=O)NO)S(C)(=O)=O)c(=O)c3)cc2)C1 (stereo partly drawn) [Example 10-B, (2R)-N-hydroxy-4-[4-{4-[(3-hydroxy-3-methylcyclobutyl)methoxy]phenyl}-2-oxopyridin-1(2H)-yl]-2-methyl-2-(methylsulfonyl)butanamide] | 1 µg/mL | 0.5 µg/mL | > 64 µg/mL
16 | CC(CCn1ccc(-c2ccc(OC3CC(CO)C3)cc2)cc1=O)(C(=O)NO)S(C)(=O)=O (stereo not drawn) [Example 10-F, N-hydroxy-4-[4-(4-{[3-(hydroxymethyl)cyclobutyl]oxy}phenyl)-2-oxopyridin-1(2H)-yl]-2-methyl-2-(methylsulfonyl)butanamide] | 2 µg/mL | 0.5 µg/mL | 64 µg/mL
17 | COc1ccc(-c2ccn(CC[C@](C)(C(=O)NO)S(C)(=O)=O)c(=O)c2)c(F)c1 [Example 21, (2R)-4-[4-(2-fluoro-4-methoxyphenyl)-2-oxopyridin-1(2H)-yl]-N-hydroxy-2-methyl-2-(methylsulfonyl)butanamide] | 0.25 µg/mL | 0.125 µg/mL | 32 µg/mL
18 | C[C@@](CCn1ccc(-c2ccc(F)cc2)cc1=O)(C(=O)NO)S(C)(=O)=O [Example 41, (2R)-4-[4-(4-fluorophenyl)-2-oxopyridin-1(2H)-yl]-N-hydroxy-2-methyl-2-(methylsulfonyl)butanamide] | 0.5 µg/mL | 1 µg/mL | > 64 µg/mL
19 | CC(CCn1ccc(-c2ccc(CCCO)cc2)cc1=O)(C(=O)NO)S(C)(=O)=O (stereo not drawn) [Example 31, N-Hydroxy-4-{4-[4-(3-hydroxypropyl)phenyl]-2-oxopyridin-1(2H)-yl}-2-methyl-2-(methylsulfonyl)butanamide] | 4 µg/mL | 8 µg/mL | > 64 µg/mL
20 | CC(O)c1ccc(-c2ccn(CCC(C)(C(=O)NO)S(C)(=O)=O)c(=O)c2)cc1 (stereo not drawn) [Example 68-Q, N-hydroxy-4-{4-[4-(1-hydroxyethyl)phenyl]-2-oxopyridin-1(2H)-yl}-2-methyl-2-(methylsulfonyl)butanamide] | 16 µg/mL | 64 µg/mL | > 64 µg/mL
21 | C[C@@](CCn1cc(F)c(-c2ccccc2)cc1=O)(C(=O)NO)S(C)(=O)=O [Example 56, (2R)-4-(5-fluoro-2-oxo-4-phenylpyridin-1(2H)-yl)-N-hydroxy-2-methyl-2-(methylsulfonyl)butanamide] | 1 µg/mL | 4 µg/mL | > 64 µg/mL
22 | CC(CCn1ccc(-c2ccc(OCCc3ccncc3)cc2)cc1=O)(C(=O)NO)S(C)(=O)=O (stereo not drawn) [Example 37, N-hydroxy-2-methyl-2-(methylsulfonyl)-4-{2-oxo-4-[4-(2-pyridin-4-ylethoxy)phenyl]pyridin-1(2H)-yl}butanamide] | 4 µg/mL | 0.5 µg/mL | > 64 µg/mL
23 | C[C@@](CCn1ccc(-c2ccc(CC3CC(O)C3)cc2)cc1=O)(C(=O)NO)S(C)(=O)=O (stereo partly drawn) [Example 68-M, (2R)-N-hydroxy-4-[4-{4-[(3-hydroxycyclobutyl)methyl]phenyl}-2-oxopyridin-1(2H)-yl]-2-methyl-2-(methylsulfonyl)butanamide] | 2 µg/mL | 0.5 µg/mL | > 64 µg/mL
24 | COc1cnn(-c2ccc(-c3ccn(CC[C@](C)(C(=O)NO)S(C)(=O)=O)c(=O)c3)cc2)n1 [Example 58, (2R)-N-hydroxy-4-{4-[4-(4-methoxy-2H-1,2,3-triazol-2-yl)phenyl]-2-oxopyridin-1(2H)-yl}-2-methyl-2-(methylsulfonyl)butanamide] | 0.5 µg/mL | 0.03 µg/mL | > 64 µg/mL
25 | C[C@@](CCn1ccc(-c2cccc(F)c2F)cc1=O)(C(=O)NO)S(C)(=O)=O [Example 14, (2R)-4-[4-(2,3-difluorophenyl)-2-oxopyridin-1(2H)-yl]-N-hydroxy-2-methyl-2-(methylsulfonyl)butanamide] | 0.5 µg/mL | 0.5 µg/mL | > 64 µg/mL
26 | C[C@@](CCn1ccc(-c2ccc(N3CCC(CO)CC3)cc2)cc1=O)(C(=O)NO)S(C)(=O)=O [Example 61, (2R)-N-hydroxy-4-[4-{4-[4-(hydroxymethyl)piperidin-1-yl]phenyl}-2-oxopyridin-1(2H)-yl]-2-methyl-2-(methylsulfonyl)butanamide] | 2 µg/mL | 64 µg/mL | > 64 µg/mL
27 | C[C@@](CCn1ccc(-c2ccc(Cl)cc2)cc1=O)(C(=O)NO)S(C)(=O)=O [Example 15, (2R)-4-[4-(4-chlorophenyl)-2-oxopyridin-1(2H)-yl]-N-hydroxy-2-methyl-2-(methylsulfonyl)butanamide] | 0.5 µg/mL | 0.5 µg/mL | > 64 µg/mL
